Laboratory results as given in EP0225272A1, “1-Methyl-15-alpha-alkyl-androsta-1,4-diene-3,17-diones, process for their preparation and pharmaceutical compositions containing them” (SCHERING AKTIENGESELLSCHAFT, priority 1985, dated 1987).

How the values were obtained:
Aromataseaktivität = molecular target: T1, Aromataseaktivität (Rattus norvegicus, UniProt P22443); assay: PMSG test: serum estradiol in PMSG-pretreated infantile female rats (radioimmunoassay); assay type: in vivo, Ratte; settings: for Östradiol-Konzentration: peripheral serum, PMSG-pretreated rat, mean ± SD, n=10
T1 construct: Infantile weibliche Ratten reagieren auf PMSG (Pregnant Mare's Serum Gonadotropin)-Behandlung mit einheitlich erhöhter Steroidsynthese; from tissue; host or cells: living infantile female rats (in vivo); serum estradiol measured by radioimmunoassay
T1 sequence (P22443 1-508): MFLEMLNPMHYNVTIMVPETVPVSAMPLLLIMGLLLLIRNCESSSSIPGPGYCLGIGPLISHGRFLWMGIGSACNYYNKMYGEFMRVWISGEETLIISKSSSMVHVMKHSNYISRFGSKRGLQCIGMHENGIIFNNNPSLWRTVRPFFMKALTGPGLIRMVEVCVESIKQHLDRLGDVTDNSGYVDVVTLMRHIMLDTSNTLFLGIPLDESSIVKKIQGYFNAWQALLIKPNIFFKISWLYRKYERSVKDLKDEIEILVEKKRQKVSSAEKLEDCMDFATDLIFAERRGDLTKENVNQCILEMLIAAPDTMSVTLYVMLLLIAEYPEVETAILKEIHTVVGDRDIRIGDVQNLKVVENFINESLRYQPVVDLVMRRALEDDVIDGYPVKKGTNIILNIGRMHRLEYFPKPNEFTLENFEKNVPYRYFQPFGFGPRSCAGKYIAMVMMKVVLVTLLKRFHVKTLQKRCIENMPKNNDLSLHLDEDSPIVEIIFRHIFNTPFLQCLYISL
Protocol: Infantile weibliche Ratten reagieren auf PMSG (Pregnant Mare's Serum Gonadotropin)-Behandlung mit einheitlich erhöhter Steroidsynthese. Die Aromataseaktivität kann durch die Beeinflussung der PMSG-stimulierten Ostrogenbildung gemessen werden.
Im sogenannten PMSG-Test werden 21 Tage alte weibliche Ratten alle 2 Tage insgesamt 7 mal mit je 100 I.U. PMSG subkutan vorbehandelt. 1 Stunde vor und 8 Stunden nach der letzten PMSG-Applikation (d12) erhalten die Tiere die Testsubstanz in 0,1 ml Benzylbenzoat/Rizinusöl (1+9) durch subkutane Injektion. Die Kontrolltiere erhalten nur das Vehikel. 24 Stunden nach der letzten PMSG-Applikation werden die Tiere getötet. Im Serum wird Östradiol radioimmunologisch geprüft. Für jede Gruppe von 10 Tieren wird der Mittelwert der Östradiolkonzentration in nMol/1 mit der Standardabweichung errechnet. Die Signifikanzen der Unterschiede zur Kontrollgruppe werden durch die Varianzanalyse geprüft.
Zur Ermittlung der relativen Wirkungsstärke der zu testenden Substanz im Vergleich zu der Standardsubstanz wird die Regressions- und Kovarianzanalyse durchgeführt. Ferner wird die prozentuale Hemmung gegen die PMSG-Kontrolle berechnet.

Östruszyklus der Ratte = assay: Influence of aromatase inhibitors on the estrous cycle of the rat (Allen-Doisy smear technique); assay type: in vivo, Ratten (SPF-Wistar)
From the text: In einem weiteren Test wird der Einfluß von Aromatasehemmern auf den Östruszyklus der Ratte bestimmt.
Die Substanzen, die die Östrogenbiosynthese bzw. die Wirkung von Östrogenen hemmen, führen zu einer Störung des Östruszyklus bei Nagern.
Verwendet werden weibliche Ratten (SPF-Wistar) von ca. 180 g Körpergewicht. Pro Gruppe werden 10 Tiere eingesetzt. Der Zyklus wird mittels der Allen-Doisy-Abstrichtechnik täglich untersucht. Es werden zwei aufeinanderfolgende Zyklen verfolgt. Nur Tiere mit einem regelmäßigen 4-Tage-Zyklus kommen in den Versuch. Am Tage des Metöstrus werden die Tiere einmal mit der Testsubstanz (20 mg/Tier) subcutan behandelt. Die Testsubstanz wird dabei in einer 0.9%igen Kochsalzlösung mit Myrj-53^(R) (0.085%) suspendiert (0,5 ml/Dosis). Die Kontrolltiere werden nicht behandelt. Der Versuch wird beendet. wenn alle behandelten Tiere wieder normale Zyklen aufweisen.

| Structure (SMILES) | Dosis, mit der eine Hemmung der Östradiol-Konzentration beobachtet wird (Aromataseaktivität; lowest dose with inhibition, given 2 x s.c.) | Östradiol-Konzentration (Aromataseaktivität; dose 0,1 mg/Tier 2 x s.c.) | Östradiol-Konzentration (Aromataseaktivität; dose 0,3 mg/Tier 2 x s.c.) | Östradiol-Konzentration (Aromataseaktivität; dose 1,0 mg/Tier 2 x s.c.) | Östradiol-Konzentration (Aromataseaktivität; dose 3,0 mg/Tier 2 x s.c.) | Dauer der Störung des Zyklus (Durchschnitt) (Östruszyklus der Ratte; single s.c. 20 mg/Tier, average) [Tage] | Zykluslänge der meisten behandelten Tiere (Östruszyklus der Ratte; single s.c. 20 mg/Tier, untreated animals regular 4-day cycle) | Wirkung auf den Zyklus (Östruszyklus der Ratte; single s.c. treatment 20 mg/Tier at metestrus, effect starts right after treatment) |
| --- | --- | --- | --- | --- | --- | --- | --- | --- |
| C[C@]12CCC(=O)C(O)=C1CC[C@@H]1[C@@H]2CC[C@]2(C)C(=O)CC[C@@H]12 [A, 4-Hydroxy-4-androsten-3,17-dion] | 1,0 mg | 3,98 ± 1,12 nMol/l | 3,84 ± 0,84 nMol/l | 1,94 ± 0,62 nMol/l | 0,98 ± 0,19 nMol/l | – | – | – |
| CC(=O)O[C@@H](C)[C@H]1CC(=O)[C@@]2(C)CC[C@H]3[C@@H](CCC4=CC(=O)C=C(C)[C@@]43C)[C@H]12 [B] | – | 2,11 ± 0,39 nMol/l | 0,62 ± 0,13 nMol/l | 0,54 ± 0,07 nMol/l | 0,36 ± 0,06 nMol/l | – | – | – |
| CCCC(=O)OC(C)C1CC(=O)C2(C)CCC3C(CCC4=CC(=O)C=C(C)C43C)C12 (stereo not drawn) [C, 15a-(1S-Butyryloxy-ethyl)-1-methyl-androsta-1.4-dien-3,17-dion] | – | – | – | – | – | ~15 | 5-Tage-Zyklus | Störung des Zyklus |
